Laboratory results from paper PMC12649549, “Sequence Permutation Generated Lysine and Tryptophan-Rich Antimicrobial Peptides with Enhanced Therapeutic Index” (Antibiotics, 2025).
Like-named read-outs stand apart in the source and are kept apart here.

Assays:
[1] = test system: A. baumannii 14B00100 (Acinetobacter sp., BCRC number 14B0100)
Procedure, shortened: (§1)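 Broth microdilution per CLSI in Müller-Hinton broth and modified LYM broth (pH 7.4; variants with 300–50 mM NaCl, 2.5–0.5 mM MgCl2, or pH 6.5–4.5). Inoculum 5 × 10^5 CFU/mL; peptides at final 50 to 0.78 µg/mL, twofold series. MIC reported; three independent repeats.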

[2] = test system: A. baumannii 14B0091 (Acinetobacter sp., BCRC number 14B0091)
Procedure, shortened: as §1

[3] = test system: Escherichia coli (ATCC 25922)
Procedure, shortened: as §1

S. aureus ATCC 25923 = test system: S. aureus ATCC 25923
Procedure, shortened: as §1

S. aureus ATCC 33591 = test system: S. aureus ATCC 33591
Procedure, shortened: as §1

S. aureus ATCC 6538 = test system: S. aureus ATCC 6538
Procedure, shortened: as §1

Gram-negative bacteria = assay: Geometric mean MIC and therapeutic index, Gram-negative bacteria; type: cell-based; conditions: Gram-negative bacteria; for GM G− (geometric mean of the MIC values): MH broth, MIC >50 µg/mL counted as 100 µg/mL; for Therapeutic Index (TI) G−: HC10/GM
Procedure, shortened: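 CLSI broth microdilution in Müller-Hinton broth and modified LYM broth (pH 7.4 base; NaCl, MgCl2 and pH varied), 5 × 10^5 CFU/mL inoculum, peptides 0.78–50 µg/mL final. TI = HC10 for human red blood cells divided by geometric mean MIC; three independent repeats.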

[4] = LYM broth, 0 mM NaCl, 16 h, 37 °C
[5] = LYM broth, 50 mM NaCl, 16 h, 37 °C
[6] = LYM broth, 100 mM NaCl, 16 h, 37 °C
[7] = LYM broth, 200 mM (NaCl), 16 h, 37 °C
[8] = LYM broth, 300 mM (NaCl), 16 h, 37 °C
[9] = MH broth, 5 × 10^5 CFU/mL, 16 h, 37 °C, repeated three times

Substance: Ac-LAKKKKWRKWLKW-NH2 [Peptide W5K09]
- MIC [1, 4]: 3.13 µg/mL
- MIC ([1]; LYM broth, 0.5 mM MgCl2): 3.13 µg/mL
- MIC ([1]; LYM broth, 1.5 mM MgCl2): 3.13 µg/mL
- MIC ([1]; LYM broth, 2.5 mM MgCl2): 3.13 µg/mL
- MIC [1, 5]: 3.13 µg/mL
- MIC [1, 6]: 6.25 µg/mL
- MIC [1, 7]: 25 µg/mL
- MIC [1, 8]: >50 µg/mL
- MIC ([1]; LYM broth, pH 4.5): 3.13 µg/mL
- MIC ([1]; LYM broth, pH 5.5): 1.56 µg/mL
- MIC ([1]; LYM broth, pH 6.5): 1.56 µg/mL
- MIC [1, 9]: 50 µg/mL
- MIC [2, 4]: 1.56 µg/mL
- MIC ([2]; LYM broth, 0.5 mM MgCl2): 3.13 µg/mL
- MIC ([2]; LYM broth, 1.5 mM MgCl2): 3.13 µg/mL
- MIC ([2]; LYM broth, 2.5 mM MgCl2): 3.13 µg/mL
- MIC [2, 5]: 6.25 µg/mL
- MIC [2, 6]: 12.5 µg/mL
- MIC [2, 7]: 50 µg/mL
- MIC [2, 8]: >50 µg/mL
- MIC ([2]; LYM broth, pH 4.5): 6.25 µg/mL
- MIC ([2]; LYM broth, pH 5.5): 3.13 µg/mL
- MIC ([2]; LYM broth, pH 6.5): 1.56 µg/mL
- MIC [2, 9]: 50 µg/mL
- MIC [3, 4]: 6.25 µg/mL
- MIC ([3]; LYM broth, 0.5 mM MgCl2): 6.25 µg/mL
- MIC ([3]; LYM broth, 1.5 mM MgCl2): 12.5 µg/mL
- MIC ([3]; LYM broth, 2.5 mM MgCl2): 12.5 µg/mL
- MIC [3, 5]: 12.5 µg/mL
- MIC [3, 6]: 25 µg/mL
- MIC [3, 7]: 50 µg/mL
- MIC [3, 8]: >50 µg/mL
- MIC ([3]; LYM broth, pH 4.5): 6.25 µg/mL
- MIC ([3]; LYM broth, pH 5.5): 3.13 µg/mL
- MIC ([3]; LYM broth, pH 6.5): 3.13 µg/mL
- MIC [3, 9]: 25 µg/mL
- MIC (S. aureus ATCC 25923; [4]): 3.13 µg/mL
- MIC (S. aureus ATCC 25923; LYM broth, 0.5 mM MgCl2): 3.13 µg/mL
- MIC (S. aureus ATCC 25923; LYM broth, 1.5 mM MgCl2): 6.25 µg/mL
- MIC (S. aureus ATCC 25923; LYM broth, 2.5 mM MgCl2): 6.25 µg/mL
- MIC (S. aureus ATCC 25923; [5]): 6.25 µg/mL
- MIC (S. aureus ATCC 25923; [6]): 12.5 µg/mL
- MIC (S. aureus ATCC 25923; [7]): 50 µg/mL
- MIC (S. aureus ATCC 25923; [8]): >50 µg/mL
- MIC (S. aureus ATCC 25923; LYM broth, pH 4.5): 6.25 µg/mL
- MIC (S. aureus ATCC 25923; LYM broth, pH 5.5): 3.13 µg/mL
- MIC (S. aureus ATCC 25923; LYM broth, pH 6.5): 1.56 µg/mL
- MIC (S. aureus ATCC 25923; [9]): 25 µg/mL
- MIC (S. aureus ATCC 33591; [4]): 25 µg/mL
- MIC (S. aureus ATCC 33591; LYM broth, 0.5 mM MgCl2): 25 µg/mL
- MIC (S. aureus ATCC 33591; LYM broth, 1.5 mM MgCl2): 50 µg/mL
- MIC (S. aureus ATCC 33591; LYM broth, 2.5 mM MgCl2): 50 µg/mL
- MIC (S. aureus ATCC 33591; [5]): 25 µg/mL
- MIC (S. aureus ATCC 33591; [6]): 50 µg/mL
- MIC (S. aureus ATCC 33591; [7]): >50 µg/mL
- MIC (S. aureus ATCC 33591; [8]): >50 µg/mL
- MIC (S. aureus ATCC 33591; LYM broth, pH 4.5): 25 µg/mL
- MIC (S. aureus ATCC 33591; LYM broth, pH 5.5): 12.5 µg/mL
- MIC (S. aureus ATCC 33591; LYM broth, pH 6.5): 12.5 µg/mL
- MIC (S. aureus ATCC 33591; [9]): >50 µg/mL
- MIC (S. aureus ATCC 6538; [4]): 6.25 µg/mL
- MIC (S. aureus ATCC 6538; LYM broth, 0.5 mM MgCl2): 3.13 µg/mL
- MIC (S. aureus ATCC 6538; LYM broth, 1.5 mM MgCl2): 3.13 µg/mL
- MIC (S. aureus ATCC 6538; LYM broth, 2.5 mM MgCl2): 3.13 µg/mL
- MIC (S. aureus ATCC 6538; [5]): 6.25 µg/mL
- MIC (S. aureus ATCC 6538; [6]): 12.5 µg/mL
- MIC (S. aureus ATCC 6538; [7]): 12.5 µg/mL
- MIC (S. aureus ATCC 6538; [8]): 50 µg/mL
- MIC (S. aureus ATCC 6538; LYM broth, pH 4.5): 6.25 µg/mL
- MIC (S. aureus ATCC 6538; LYM broth, pH 5.5): 3.13 µg/mL
- MIC (S. aureus ATCC 6538; LYM broth, pH 6.5): 3.13 µg/mL
- MIC (S. aureus ATCC 6538; [9]): >50 µg/mL
- GM G− (geometric mean of the MIC values) (Gram-negative bacteria): 33.0 µg/mL
- Therapeutic Index (TI) G− (Gram-negative bacteria): 3.3

Substance: Ac-LKWLAKKKKWRKW-NH2 [Peptide W5K06]
- MIC [1, 4]: 3.13 µg/mL
- MIC ([1]; LYM broth, 0.5 mM MgCl2): 3.13 µg/mL
- MIC ([1]; LYM broth, 1.5 mM MgCl2): 3.13 µg/mL
- MIC ([1]; LYM broth, 2.5 mM MgCl2): 3.13 µg/mL
- MIC [1, 5]: 3.13 µg/mL
- MIC [1, 6]: 6.25 µg/mL
- MIC [1, 7]: 25 µg/mL
- MIC [1, 8]: >50 µg/mL
- MIC ([1]; LYM broth, pH 4.5): 3.13 µg/mL
- MIC ([1]; LYM broth, pH 5.5): 3.13 µg/mL
- MIC ([1]; LYM broth, pH 6.5): 1.56 µg/mL
- MIC [1, 9]: 50 µg/mL
- MIC [2, 4]: 3.13 µg/mL
- MIC ([2]; LYM broth, 0.5 mM MgCl2): 3.13 µg/mL
- MIC ([2]; LYM broth, 1.5 mM MgCl2): 3.13 µg/mL
- MIC ([2]; LYM broth, 2.5 mM MgCl2): 3.13 µg/mL
- MIC [2, 5]: 3.13 µg/mL
- MIC [2, 6]: 6.25 µg/mL
- MIC [2, 7]: 50 µg/mL
- MIC [2, 8]: >50 µg/mL
- MIC ([2]; LYM broth, pH 4.5): 3.13 µg/mL
- MIC ([2]; LYM broth, pH 5.5): 3.13 µg/mL
- MIC ([2]; LYM broth, pH 6.5): 1.56 µg/mL
- MIC [2, 9]: 50 µg/mL
- MIC [3, 4]: 6.25 µg/mL
- MIC ([3]; LYM broth, 0.5 mM MgCl2): 6.25 µg/mL
- MIC ([3]; LYM broth, 1.5 mM MgCl2): 6.25 µg/mL
- MIC ([3]; LYM broth, 2.5 mM MgCl2): 6.25 µg/mL
- MIC [3, 5]: 12.5 µg/mL
- MIC [3, 6]: 50 µg/mL
- MIC [3, 7]: >50 µg/mL
- MIC [3, 8]: >50 µg/mL
- MIC ([3]; LYM broth, pH 4.5): 12.5 µg/mL
- MIC ([3]; LYM broth, pH 5.5): 6.25 µg/mL
- MIC ([3]; LYM broth, pH 6.5): 3.13 µg/mL
- MIC [3, 9]: 25 µg/mL
- MIC (S. aureus ATCC 25923; [4]): 6.25 µg/mL
- MIC (S. aureus ATCC 25923; LYM broth, 0.5 mM MgCl2): 6.25 µg/mL
- MIC (S. aureus ATCC 25923; LYM broth, 1.5 mM MgCl2): 6.25 µg/mL
- MIC (S. aureus ATCC 25923; LYM broth, 2.5 mM MgCl2): 6.25 µg/mL
- MIC (S. aureus ATCC 25923; [5]): 12.5 µg/mL
- MIC (S. aureus ATCC 25923; [6]): 25 µg/mL
- MIC (S. aureus ATCC 25923; [7]): 50 µg/mL
- MIC (S. aureus ATCC 25923; [8]): >50 µg/mL
- MIC (S. aureus ATCC 25923; LYM broth, pH 4.5): 6.25 µg/mL
- MIC (S. aureus ATCC 25923; LYM broth, pH 5.5): 6.25 µg/mL
- MIC (S. aureus ATCC 25923; LYM broth, pH 6.5): 3.13 µg/mL
- MIC (S. aureus ATCC 25923; [9]): 50 µg/mL
- MIC (S. aureus ATCC 33591; [4]): 12.5 µg/mL
- MIC (S. aureus ATCC 33591; LYM broth, 0.5 mM MgCl2): 12.5 µg/mL
- MIC (S. aureus ATCC 33591; LYM broth, 1.5 mM MgCl2): 12.5 µg/mL
- MIC (S. aureus ATCC 33591; LYM broth, 2.5 mM MgCl2): 25 µg/mL
- MIC (S. aureus ATCC 33591; [5]): 25 µg/mL
- MIC (S. aureus ATCC 33591; [6]): 50 µg/mL
- MIC (S. aureus ATCC 33591; [7]): 50 µg/mL
- MIC (S. aureus ATCC 33591; [8]): >50 µg/mL
- MIC (S. aureus ATCC 33591; LYM broth, pH 4.5): 12.5 µg/mL
- MIC (S. aureus ATCC 33591; LYM broth, pH 5.5): 6.25 µg/mL
- MIC (S. aureus ATCC 33591; LYM broth, pH 6.5): 6.25 µg/mL
- MIC (S. aureus ATCC 33591; [9]): >50 µg/mL
- MIC (S. aureus ATCC 6538; [4]): 6.25 µg/mL
- MIC (S. aureus ATCC 6538; LYM broth, 0.5 mM MgCl2): 3.13 µg/mL
- MIC (S. aureus ATCC 6538; LYM broth, 1.5 mM MgCl2): 3.13 µg/mL
- MIC (S. aureus ATCC 6538; LYM broth, 2.5 mM MgCl2): 6.25 µg/mL
- MIC (S. aureus ATCC 6538; [5]): 6.25 µg/mL
- MIC (S. aureus ATCC 6538; [6]): 25 µg/mL
- MIC (S. aureus ATCC 6538; [7]): 50 µg/mL
- MIC (S. aureus ATCC 6538; [8]): >50 µg/mL
- MIC (S. aureus ATCC 6538; LYM broth, pH 4.5): 6.25 µg/mL
- MIC (S. aureus ATCC 6538; LYM broth, pH 5.5): 6.25 µg/mL
- MIC (S. aureus ATCC 6538; LYM broth, pH 6.5): 6.25 µg/mL
- MIC (S. aureus ATCC 6538; [9]): 50 µg/mL
- GM G− (geometric mean of the MIC values) (Gram-negative bacteria): 43.5 µg/mL
- Therapeutic Index (TI) G− (Gram-negative bacteria): 2.5
